Test results from US9974306B2, “Herbicidal combinations for tolerant soybean cultures” (priority 2012, dated 2018).

Experiments:
EPHHL = test: Post-emergence greenhouse treatment, visual rating of herbicidal effect; assay type: in vivo, Euphorbia heterophylla
Description: (§1) Seeds of grass and broadleaf weeds were sown in pots (diameter: 8 cm) filled with a sandy loam soil. For the herbicide post-emergent treatment, the weeds were grown under optimal conditions up to a growth stage of BBCH 11 (1-2 leaf stage) to 14 (3-4 leaf stage) depending on species. The following weeds were used:
(§2) The applications were performed by post emergence treatments on the planted pots using a spray volume of 300 L water per hectare. The herbicides were applied alone and in combination as in the tables below.
(§3) The trial was conducted in the greenhouse ensuring optimal growing conditions.
(§4) The herbicidal effects were assessed 14 and 24 days following application by visual ratings comparing treated and untreated plants (0%=no effect to 100%=complete die-off).
(§5) The visual ratings are used to calculate interactions between treatments alone and combination treatments according to S. R. Colby, Weeds 15, pages 20 to 22 (1967).

SETVI = test: as above; assay type: in vivo, Setaria viridis; conditions: 1-2 leaf; for Effect: 24 d; for Effect (%): SETVI, assessment 24 d
Description: as §1, §2, §3, §4, §5

SETFA = test: as above; assay type: in vivo, Setaria faberi; conditions: 1-2 leaf
Description: as §1, §2, §3, §4, §5

GLXMA GM_W336 = test: Post-emergence greenhouse treatment, visual rating of effect on W336 transgenic (HPPD inhibitor tolerant) soybean; assay type: in vivo; conditions: for Effect (%): GLXMA GM_W336
Description: (§6) The soybeans were grown under the same conditions as described above. The following three varieties were used in the tests:
(§7) 1) W336—Transgenic soybean plants comprising a chimeric gene encoding a W336 mutant HPPD protein of Pseudomonas fluorescens (U.S. Pat. No. 6,245,968) fused to the optimized transit peptide for chloroplast targeting (U.S. Pat. No. 5,510,471), and under the control of the 35S CaMV promoter (Odell et al., 1985, Nature 313: 810-812) fused to the 5′ enhancer sequence of TEV (Carrington and Freed, 1990, J. Virol. 64: 1590-1597), with as 3′ transcript termination and polyadenylation region that of the CaMV 35S gene (Sanfacon et al., 1991, Genes & Development 5:141-149), abbreviated as “W336 soybean plants” herein. 2) MERLIN—conventional 3) PROTINA—conventional
(§8) Two sets of soybeans reaching different growth stages at application time were prepared: one up to growth stage BBCH 11 (1-2 leaf stage) and the other up to BBCH 13 (3-4 leaf stage). Both soybean sets were treated at the same time (together with the weeds) but they were evaluated separately.
as §2, §3, §4, §5

GLXMA Merlin = test: Post-emergence greenhouse treatment, visual rating of effect on conventional soybean MERLIN; assay type: in vivo; conditions: for Effect (%): GLXMA Merlin, assessment 24 d
Description: as §6, §7, §8, §2, §3, §4, §5

PHBPU = test: Post-emergence greenhouse treatment, visual rating of herbicidal effect; assay type: in vivo, Pharbitis purpurea
Description: as §1, §2, §3, §4, §5

BIDPI = test: as above; assay type: in vivo, Bidens pilosa
Description: as §1, §2, §3, §4, §5

BRAPP = test: as above; assay type: in vivo, Brachiaria platyphylla; conditions: for Effect (%): BRAPP
Description: as §1, §2, §3, §4, §5

POLCO = test: as above; assay type: in vivo, Polygonum convolvulus; conditions: for Effect (%): POLCO, (B1) alone 40 g a.i./ha
Description: as §1, §2, §3, §4, §5

SORHA = test: as above; assay type: in vivo, Sorghum halepense
Description: as §1, §2, §3, §4, §5

GLXMA Protina = test: Post-emergence greenhouse treatment, visual rating of effect on conventional soybean PROTINA; assay type: in vivo; conditions: for Effect (%): GLXMA Protina
Description: as §6, §7, §8, §2, §3, §4, §5

[1] = 1-2 leaf, 14 d, 20 g a.i./ha alone
[2] = 1-2 leaf, 24 d, 20 g a.i./ha alone
[3] = 1-2 leaf, 24 d, 80 g a.i./ha alone
[4] = 1-2 leaf, 24 d, 40 g a.i./ha alone
[5] = 3-4 leaf, 14 d, 20 g a.i./ha alone
[6] = 3-4 leaf, 14 d, 80 g a.i./ha alone
[7] = 1-2 leaf, assessment 24 d, (B1) alone 40 g a.i./ha
[8] = 1-2 leaf, assessment 24 d, (B1) alone 80 g a.i./ha
[9] = 3-4 leaf, assessment 14 d, (B1) alone 20 g a.i./ha
[10] = 3-4 leaf, assessment 14 d, (B1) alone 40 g a.i./ha

CSc1nnc(C(C)(C)C)c(=O)n1N [(B1), 4-amino-6-tert-butyl-4,5-dihydro-3-methylthio-1,2,4-triazin-5-one]
30%: Effect (SETFA; 14 d, 80 g a.i./ha) | Effect (GLXMA GM_W336; [3]) | Effect (GLXMA GM_W336; 1-2 leaf, 24 d, 80 g a.i./ha) | Effect (GLXMA GM_W336; 3-4 leaf, 24 d, 20 g a.i./ha) | Effect (%) (GLXMA GM_W336; [8])
65%: Effect (EPHHL; [3])
0%: Effect (GLXMA Merlin; 1-2 leaf, 24 d, 40 g a.i./ha) | Effect (%) (GLXMA Merlin; 1-2 leaf, (B1) alone 40 g a.i./ha) | Effect (PHBPU; [2]) | Effect (PHBPU; 1-2 leaf, 24 d, 40 g a.i./ha) | Effect (SORHA; 3-4 leaf, 24 d, 20 g a.i./ha)
35%: Effect (GLXMA GM_W336; [5]) | Effect (GLXMA GM_W336; [6]) | Effect (GLXMA GM_W336; 3-4 leaf, 14 d, 20 g a.i./ha) | Effect (GLXMA GM_W336; 3-4 leaf, 14 d, 40 g a.i./ha) | Effect (%) (GLXMA GM_W336; [9]) | Effect (%) (GLXMA GM_W336; [10]) | Effect (%) (BRAPP; [8]) | Effect (GLXMA Protina; 3-4 leaf, 14 d, 40 g a.i./ha) | Effect (GLXMA Protina; 3-4 leaf, 24 d, 20 g a.i./ha) | Effect (%) (GLXMA Protina; [10])
20%: Effect (EPHHL; [2]) | Effect (EPHHL; 3-4 leaf, 24 d, 20 g a.i./ha) | Effect (GLXMA GM_W336; [1]) | Effect (POLCO; [3]) | Effect (SORHA; 1-2 leaf, 14 d, 80 g a.i./ha) | Effect (SORHA; [5]) | Effect (SORHA; [6]) | Effect (SORHA; 3-4 leaf, 14 d, 20 g a.i./ha) | Effect (GLXMA Protina; [1])
5%: Effect (BIDPI; [2]) | Effect (BIDPI; 3-4 leaf, 24 d, 20 g a.i./ha)
25%: Effect (GLXMA GM_W336; 1-2 leaf, 14 d, 80 g a.i./ha) | Effect (GLXMA Protina; [5]) | Effect (GLXMA Protina; 3-4 leaf, 14 d, 20 g a.i./ha) | Effect (%) (GLXMA Protina; [9])
50%: Effect (%) (SETVI; (B1) alone 40 g a.i./ha) | Effect (GLXMA Merlin; [6])
10%: Effect (SETVI; 80 g a.i./ha alone) | Effect (SETVI; 80 g a.i./ha) | Effect (%) (SETVI; (B1) alone 80 g a.i./ha) | Effect (SETFA; 24 d, 40 g a.i./ha) | Effect (%) (SETFA; SETFA, assessment 24 d, (B1) alone 40 g a.i./ha) | Effect (GLXMA GM_W336; [2]) | Effect (GLXMA GM_W336; [4]) | Effect (GLXMA GM_W336; 1-2 leaf, 24 d, 40 g a.i./ha) | Effect (%) (GLXMA GM_W336; [7]) | Effect (%) (GLXMA Merlin; 1-2 leaf, (B1) alone 80 g a.i./ha) | Effect (PHBPU; 3-4 leaf, 14 d, 40 g a.i./ha) | Effect (BRAPP; [2]) | Effect (BRAPP; [4]) | Effect (BRAPP; 3-4 leaf, 24 d, 20 g a.i./ha) | Effect (%) (BRAPP; [7]) | Effect (POLCO; [5]) | Effect (POLCO; 3-4 leaf, 14 d, 20 g a.i./ha) | Effect (POLCO; 3-4 leaf, 24 d, 20 g a.i./ha) | Effect (SORHA; [3]) | Effect (SORHA; 1-2 leaf, 24 d, 80 g a.i./ha) | Effect (%) (SORHA; SORHA, 1-2 leaf, assessment 24 d, (B1) alone 40 g a.i./ha)
15%: Effect (BRAPP; [1]) | Effect (BRAPP; 3-4 leaf, 14 d, 20 g a.i./ha) | Effect (%) (BRAPP; [9]) | Effect (%) (POLCO; 1-2 leaf, assessment 24 d) | Effect (GLXMA Protina; [2]) | Effect (GLXMA Protina; [4]) | Effect (%) (GLXMA Protina; [7])
45%: Effect (EPHHL; [1]) | Effect (BIDPI; [4]) | Effect (BRAPP; 3-4 leaf, 14 d, 40 g a.i./ha) | Effect (%) (BRAPP; [10])
40%: Effect (GLXMA Merlin; 3-4 leaf, 24 d, 20 g a.i./ha) | Effect (BIDPI; 3-4 leaf, 14 d, 20 g a.i./ha) | Effect (%) (BIDPI; BIDPI, 3-4 leaf, assessment 14 d, (B1) alone 20 g a.i./ha) | Effect (POLCO; [6]) | Effect (%) (POLCO; 3-4 leaf, assessment 14 d) | Effect (GLXMA Protina; [3]) | Effect (GLXMA Protina; 1-2 leaf, 14 d, 80 g a.i./ha) | Effect (GLXMA Protina; 1-2 leaf, 24 d, 80 g a.i./ha)
